Structures can show the parent of a compound that is named as a salt. Where two headings read alike, the source gives them in different places. Square brackets hold non-standard residues; d marks the D form. Peptide text beside a SMILES is read from it. * marks the point of attachment. NMe(2-epi-Bmt) = C/C=C/C[C@@H](C)[C@@H](O)[C@@H](NC)C(=O)O; Ethyl(2-morpholino) = C1CN(CC*)CCO1; Ethyl(2-guanidino) = N=C(N)NCC*; Ala(3-yl) = N[C@@H](C*)C(=O)O; NMeL = CN[C@@H](CC(C)C)C(=O)O; dNMeL = CN[C@H](CC(C)C)C(=O)O; dNMeV = CN[C@@H](C(=O)O)C(C)C; dNMeC = CN[C@H](CS)C(=O)O; dAbu = CC[C@@H](N)C(=O)O; Et2NCH2CH2 = CCN(CC)CC*; CH2CH2COOH = O=C(O)CC*; X3 = c1cc(CC*)ccn1; X5 = CN1CCC(*)CC1; X6 = COC(=O)CC*; X1 = COC(=O)C*; X4 = CC(C)NCC*; X2 = CCCCC*
Assays:
Calcineurin = Calcineurin (Homo sapiens, UniProt P63098+Q08209); assay: biochemical
human recombinant Cyp A = human recombinant Cyp A (Homo sapiens, UniProt P62937); assay: biochemical
[1] = system: Spleen cells from C57BL/6 (responder) and BALB/c (stimulator) mice; assay: Mixed lymphocyte reaction (MLR) assay; type: cell-based, mouse

Sequence of human recombinant Cyp A (P62937 whole entry): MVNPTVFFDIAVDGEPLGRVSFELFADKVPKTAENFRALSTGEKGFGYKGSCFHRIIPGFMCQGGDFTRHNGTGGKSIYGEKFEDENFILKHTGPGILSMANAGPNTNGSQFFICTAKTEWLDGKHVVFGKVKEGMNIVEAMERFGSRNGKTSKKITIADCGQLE

SMILES | IC50 (Calcineurin) [nM] | Ki (human recombinant Cyp A) [nM] | IC50 ([1]; Mus musculus, read-out: MLR nM) [nM] | IC50 ([1]; mouse spleen cells, five days, 3H-thymidine proliferation, read-out: MLR) [nM]
C/C=C/C[C@@H](C)[C@@H](O)[C@@H]1C(=O)N[C@H](CC)C(=O)N(C)[C@H](CSCCN(CC)CC)C(=O)N(C)[C@@H](CC(C)C)C(=O)N[C@H](C(C)C)C(=O)N(C)[C@H](CC(C)C)C(=O)N[C@H](C)C(=O)N[C@@H](C)C(=O)N(C)[C@H](CC(C)C)C(=O)N(C)[C@H](CC(C)C)C(=O)N(C)[C@H](C(C)C)C(=O)N1C [Example 2, [(S)-2-Diethylaminoethylthiomethyl-Sar]^3 cyclosporin A] (cyclo(A[dNMeL][dNMeL][dNMeV][NMe(2-epi-Bmt)][dAbu][dNMeC](Et2NCH2CH2)[NMeL][dV][dNMeL][dA])) | 3600 | 2.4 | 3500 | 
C/C=C/C[C@@H](C)[C@@H](O)[C@@H]1C(=O)N[C@H](CC)C(=O)N(C)[C@H](CSCCc2ccncc2)C(=O)N(C)[C@@H](CC(C)C)C(=O)N[C@H](C(C)C)C(=O)N(C)[C@H](CC(C)C)C(=O)N[C@H](C)C(=O)N[C@@H](C)C(=O)N(C)[C@H](CC(C)C)C(=O)N(C)[C@H](CC(C)C)C(=O)N(C)[C@H](C(C)C)C(=O)N1C [Example 3, [(S)-2-(4-pyridyl)ethylthiomethyl-Sar]^3 cyclosporin A] (cyclo(A[dNMeL][dNMeL][dNMeV][NMe(2-epi-Bmt)][dAbu][dNMeC](X3)[NMeL][dV][dNMeL][dA])) | 11800 | 4.3 | 2000 | 
C/C=C/C[C@@H](C)[C@@H](O)[C@@H]1C(=O)N[C@H](CC)C(=O)N(C)[C@H](CSC)C(=O)N(C)[C@@H](CC(C)C)C(=O)N[C@H](C(C)C)C(=O)N(C)[C@H](CC(C)C)C(=O)N[C@H](C)C(=O)N[C@@H](C)C(=O)N(C)[C@H](CC(C)C)C(=O)N(C)[C@H](CC(C)C)C(=O)N(C)[C@H](C(C)C)C(=O)N1C [Example 4, [(S)-Methylthiomethyl-Sar]^3 cyclosporin A] (cyclo(A[dNMeL][dNMeL][dNMeV][NMe(2-epi-Bmt)][dAbu][dNMeC](Me)[NMeL][dV][dNMeL][dA])) | 2200 | 6.9 |  | 
C/C=C/C[C@@H](C)[C@@H](O)[C@@H]1C(=O)N[C@H](CC)C(=O)N(C)[C@H](CSCCCCC)C(=O)N(C)[C@@H](CC(C)C)C(=O)N[C@H](C(C)C)C(=O)N(C)[C@H](CC(C)C)C(=O)N[C@H](C)C(=O)N[C@@H](C)C(=O)N(C)[C@H](CC(C)C)C(=O)N(C)[C@H](CC(C)C)C(=O)N(C)[C@H](C(C)C)C(=O)N1C [Example 5, [(S)-Pentylthiomethyl-Sar]^3 cyclosporin A] (cyclo(A[dNMeL][dNMeL][dNMeV][NMe(2-epi-Bmt)][dAbu][dNMeC](X2)[NMeL][dV][dNMeL][dA])) | > 10000 | 2.3 | 2700 | 
C/C=C/C[C@@H](C)[C@@H](O)[C@@H]1C(=O)N[C@H](CC)C(=O)N(C)[C@H](CSC2CCN(C)CC2)C(=O)N(C)[C@@H](CC(C)C)C(=O)N[C@H](C(C)C)C(=O)N(C)[C@H](CC(C)C)C(=O)N[C@H](C)C(=O)N[C@@H](C)C(=O)N(C)[C@H](CC(C)C)C(=O)N(C)[C@H](CC(C)C)C(=O)N(C)[C@H](C(C)C)C(=O)N1C [Example 9] (cyclo(A[dNMeL][dNMeL][dNMeV][NMe(2-epi-Bmt)][dAbu][dNMeC](X5)[NMeL][dV][dNMeL][dA])) | 3300 | 4.8 | 3800 | 
C/C=C/C[C@@H](C)[C@@H](O)[C@@H]1C(=O)N[C@H](CC)C(=O)N(C)[C@H](CSCCN2CCOCC2)C(=O)N(C)[C@@H](CC(C)C)C(=O)N[C@H](C(C)C)C(=O)N(C)[C@H](CC(C)C)C(=O)N[C@H](C)C(=O)N[C@@H](C)C(=O)N(C)[C@H](CC(C)C)C(=O)N(C)[C@H](CC(C)C)C(=O)N(C)[C@H](C(C)C)C(=O)N1C [Example 10, [(S)-2-(Morpholino)ethylthiomethyl-Sar]^3 cyclosporin A] (cyclo(A[dNMeL][dNMeL][dNMeV][NMe(2-epi-Bmt)][dAbu][dNMeC](Ethyl(2-morpholino))[NMeL][dV][dNMeL][dA])) | 4200 | 3.9 |  | 
C/C=C/C[C@@H](C)[C@@H](O)[C@@H]1C(=O)N[C@H](CC)C(=O)N(C)[C@H](CSCC(=O)OC)C(=O)N(C)[C@@H](CC(C)C)C(=O)N[C@H](C(C)C)C(=O)N(C)[C@H](CC(C)C)C(=O)N[C@H](C)C(=O)N[C@@H](C)C(=O)N(C)[C@H](CC(C)C)C(=O)N(C)[C@H](CC(C)C)C(=O)N(C)[C@H](C(C)C)C(=O)N1C [Example 11, [(S)-Carbomethoxymethylthiomethyl-Sar]^3 cyclosporin A] (cyclo(A[dNMeL][dNMeL][dNMeV][NMe(2-epi-Bmt)][dAbu][dNMeC](X1)[NMeL][dV][dNMeL][dA])) | 3900 | 2.1 | 19500 | 
C/C=C/C[C@@H](C)[C@@H](O)[C@@H]1C(=O)N[C@H](CC)C(=O)N(C)[C@H](CSCCC(=O)OC)C(=O)N(C)[C@@H](CC(C)C)C(=O)N[C@H](C(C)C)C(=O)N(C)[C@H](CC(C)C)C(=O)N[C@H](C)C(=O)N[C@@H](C)C(=O)N(C)[C@H](CC(C)C)C(=O)N(C)[C@H](CC(C)C)C(=O)N(C)[C@H](C(C)C)C(=O)N1C [Example 12, [(S)-Carbomethoxyethylthiomethyl-Sar]^3 cyclosporin A] (cyclo(A[dNMeL][dNMeL][dNMeV][NMe(2-epi-Bmt)][dAbu][dNMeC](X6)[NMeL][dV][dNMeL][dA])) | 9100 | 2.7 |  | 
C/C=C/C[C@@H](C)[C@@H](O)[C@@H]1C(=O)N[C@H](CC)C(=O)N(C)[C@H](CSC(C)(C)[C@@H](N)C(=O)OC)C(=O)N(C)[C@@H](CC(C)C)C(=O)N[C@H](C(C)C)C(=O)N(C)[C@H](CC(C)C)C(=O)N[C@H](C)C(=O)N[C@@H](C)C(=O)N(C)[C@H](CC(C)C)C(=O)N(C)[C@H](CC(C)C)C(=O)N(C)[C@H](C(C)C)C(=O)N1C [Example 13, [(S)-{(S)-2-Amino-2-carbomethoxy-1,1-dimethyl-ethyl}thiomethyl-Sar]^3 cyclosporin A] | 4100 | 9.3 |  | 
C/C=C/C[C@@H](C)[C@@H](O)[C@@H]1C(=O)N[C@H](CC)C(=O)N(C)[C@H](CSC[C@H](N)C(=O)O)C(=O)N(C)[C@@H](CC(C)C)C(=O)N[C@H](C(C)C)C(=O)N(C)[C@H](CC(C)C)C(=O)N[C@H](C)C(=O)N[C@@H](C)C(=O)N(C)[C@H](CC(C)C)C(=O)N(C)[C@H](CC(C)C)C(=O)N(C)[C@H](C(C)C)C(=O)N1C [Example 14, [(S)-{(R)-2-Amino-2-carbohydroxy-ethyl}thiomethyl-Sar]^3 cyclosporin A] (cyclo(A[dNMeL][dNMeL][dNMeV][NMe(2-epi-Bmt)][dAbu][dNMeC](Ala(3-yl))[NMeL][dV][dNMeL][dA])) | 7400 |  |  | 
C/C=C/C[C@@H](C)[C@@H](O)[C@@H]1C(=O)N[C@H](CC)C(=O)N(C)[C@H](CSC(C)(C)[C@@H](N)C(=O)O)C(=O)N(C)[C@@H](CC(C)C)C(=O)N[C@H](C(C)C)C(=O)N(C)[C@H](CC(C)C)C(=O)N[C@H](C)C(=O)N[C@@H](C)C(=O)N(C)[C@H](CC(C)C)C(=O)N(C)[C@H](CC(C)C)C(=O)N(C)[C@H](C(C)C)C(=O)N1C [Example 16, [(S)-{(S)-2-Amino-2-carbohydroxy-1,1-dimethyl-ethyl}thiomethyl-Sar]^3 cyclosporin A] | 2700 | 5.8 |  | 
C/C=C/C[C@@H](C)[C@@H](O)[C@@H]1C(=O)N[C@H](CC)C(=O)N(C)[C@H](CSCCC(=O)O)C(=O)N(C)[C@@H](CC(C)C)C(=O)N[C@H](C(C)C)C(=O)N(C)[C@H](CC(C)C)C(=O)N[C@H](C)C(=O)N[C@@H](C)C(=O)N(C)[C@H](CC(C)C)C(=O)N(C)[C@H](CC(C)C)C(=O)N(C)[C@H](C(C)C)C(=O)N1C [Example 17, [(S)-Carbohydroxyethylthiomethyl-Sar]^3 cyclosporin A] (cyclo(A[dNMeL][dNMeL][dNMeV][NMe(2-epi-Bmt)][dAbu][dNMeC](CH2CH2COOH)[NMeL][dV][dNMeL][dA])) | 17000 | 2.8 |  | 
C/C=C/C[C@@H](C)[C@@H](O)[C@@H]1C(=O)N[C@H](CC)C(=O)N(C)[C@H](CSCCNC(C)C)C(=O)N(C)[C@@H](CC(C)C)C(=O)N[C@H](C(C)C)C(=O)N(C)[C@H](CC(C)C)C(=O)N[C@H](C)C(=O)N[C@@H](C)C(=O)N(C)[C@H](CC(C)C)C(=O)N(C)[C@H](CC(C)C)C(=O)N(C)[C@H](C(C)C)C(=O)N1C [Example 18, [(S)-2-Isopropylaminoethylthiomethyl-Sar]^3 cyclosporin A] (cyclo(A[dNMeL][dNMeL][dNMeV][NMe(2-epi-Bmt)][dAbu][dNMeC](X4)[NMeL][dV][dNMeL][dA])) | 4600 | 5.2 |  | 3300
C/C=C/C[C@@H](C)[C@@H](O)[C@@H]1C(=O)N[C@H](CC)C(=O)N(C)[C@H](CSCCNC(=N)N)C(=O)N(C)[C@@H](CC(C)C)C(=O)N[C@H](C(C)C)C(=O)N(C)[C@H](CC(C)C)C(=O)N[C@H](C)C(=O)N[C@@H](C)C(=O)N(C)[C@H](CC(C)C)C(=O)N(C)[C@H](CC(C)C)C(=O)N(C)[C@H](C(C)C)C(=O)N1C [Example 19, [(S)-2-Guanidinoethyl-1-sulfanylmethyl-Sar]^3 cyclosporin A hydrochloride] (cyclo(A[dNMeL][dNMeL][dNMeV][NMe(2-epi-Bmt)][dAbu][dNMeC](Ethyl(2-guanidino))[NMeL][dV][dNMeL][dA])) | 3200 | 6.8 |  | 
